The source of these data is patent US9402821B2, “Methods and pharmaceutical compositions for treatment of cystic fibrosis” (INSERM (Institut National de la sante et de la Recherche …, priority 2012, dated 2016).

The assay deals with T1, ENaC (Homo sapiens, UniProt P37088+P51168+P51170).
T1 construct: endogenous in cells; host or cells: primary human nasal epithelial cells (HNEC)
T1 sequence (P37088 1-669): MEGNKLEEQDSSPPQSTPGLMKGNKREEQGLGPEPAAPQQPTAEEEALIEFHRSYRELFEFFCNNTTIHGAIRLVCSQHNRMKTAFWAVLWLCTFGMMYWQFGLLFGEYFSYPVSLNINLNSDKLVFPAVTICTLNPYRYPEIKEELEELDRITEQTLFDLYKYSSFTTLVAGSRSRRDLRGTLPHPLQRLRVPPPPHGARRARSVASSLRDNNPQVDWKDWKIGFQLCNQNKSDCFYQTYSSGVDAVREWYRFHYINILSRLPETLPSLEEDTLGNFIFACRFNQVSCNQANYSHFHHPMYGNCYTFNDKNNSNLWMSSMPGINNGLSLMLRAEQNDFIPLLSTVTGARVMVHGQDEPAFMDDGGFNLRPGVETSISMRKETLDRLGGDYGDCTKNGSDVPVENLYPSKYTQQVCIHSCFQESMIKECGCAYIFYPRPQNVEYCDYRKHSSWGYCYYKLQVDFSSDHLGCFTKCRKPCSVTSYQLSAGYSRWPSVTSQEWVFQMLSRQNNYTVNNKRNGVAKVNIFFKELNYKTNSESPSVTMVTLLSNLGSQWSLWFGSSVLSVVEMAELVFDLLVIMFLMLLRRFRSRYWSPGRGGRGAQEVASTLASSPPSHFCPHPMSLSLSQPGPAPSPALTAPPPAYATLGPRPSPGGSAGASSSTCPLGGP
T1 sequence (P51168 1-640): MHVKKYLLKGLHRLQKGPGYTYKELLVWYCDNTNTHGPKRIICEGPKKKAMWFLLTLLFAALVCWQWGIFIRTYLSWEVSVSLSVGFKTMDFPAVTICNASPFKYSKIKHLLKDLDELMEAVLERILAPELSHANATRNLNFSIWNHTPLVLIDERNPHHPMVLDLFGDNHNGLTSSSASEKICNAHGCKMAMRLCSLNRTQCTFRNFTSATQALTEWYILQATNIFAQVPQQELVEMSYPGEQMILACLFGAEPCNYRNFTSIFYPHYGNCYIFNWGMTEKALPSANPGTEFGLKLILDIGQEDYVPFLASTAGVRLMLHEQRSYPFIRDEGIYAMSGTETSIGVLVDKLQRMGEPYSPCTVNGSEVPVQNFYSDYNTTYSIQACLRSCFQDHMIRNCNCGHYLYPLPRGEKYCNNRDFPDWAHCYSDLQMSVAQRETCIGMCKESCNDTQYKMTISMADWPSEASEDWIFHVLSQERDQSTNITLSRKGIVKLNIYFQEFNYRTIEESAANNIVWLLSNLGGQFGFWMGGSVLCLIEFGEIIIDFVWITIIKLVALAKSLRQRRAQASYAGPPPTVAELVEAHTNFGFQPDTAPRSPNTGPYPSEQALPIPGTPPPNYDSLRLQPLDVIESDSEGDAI
T1 sequence (P51170 1-649): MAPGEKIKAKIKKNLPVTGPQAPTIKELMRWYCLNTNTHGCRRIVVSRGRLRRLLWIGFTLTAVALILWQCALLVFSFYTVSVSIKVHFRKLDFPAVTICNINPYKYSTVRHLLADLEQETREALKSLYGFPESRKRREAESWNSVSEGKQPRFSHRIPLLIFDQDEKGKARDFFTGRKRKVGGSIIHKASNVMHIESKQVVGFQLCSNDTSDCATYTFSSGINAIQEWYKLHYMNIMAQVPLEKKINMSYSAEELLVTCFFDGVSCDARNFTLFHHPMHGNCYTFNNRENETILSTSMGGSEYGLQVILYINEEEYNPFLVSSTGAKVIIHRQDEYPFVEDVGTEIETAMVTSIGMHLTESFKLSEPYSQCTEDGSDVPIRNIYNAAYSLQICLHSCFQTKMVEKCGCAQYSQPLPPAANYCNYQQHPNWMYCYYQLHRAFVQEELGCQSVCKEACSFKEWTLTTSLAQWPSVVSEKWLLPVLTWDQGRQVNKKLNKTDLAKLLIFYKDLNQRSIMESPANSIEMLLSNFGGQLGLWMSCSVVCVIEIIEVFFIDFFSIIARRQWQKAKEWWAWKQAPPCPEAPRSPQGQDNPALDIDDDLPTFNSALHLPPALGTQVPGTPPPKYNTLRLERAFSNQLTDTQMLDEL
In words: Short circuit current, amiloride sensitive transport in HNEC. Type of assay: cell-based. The conditions noted are these: primary HNEC; 500 μM basolateral, 2 h. The procedure: B. Chloride activity in HeLa Wt cells was measured by MQAE assay, after 3 h of treatment by NSAID (500 μM) or diluent. CFTR activity was expressed in rate of UFA/sec, calculated by difference between ((Ft−F0)/t) with CFTR induction and ((Ft−F0)/t) without CFTR induction. […] C. Primary culture of human nasal epithelial cell (HNEC) grown on Snapwell filters (air-liquid interface) were exposed basolaterally to sulindac (500 μM) or vehicle for 2 h and immediately mounted into a voltage-clamp system to bioelectric measurements. Short circuit current was measured with addition of amiloride to evaluated amiloride sensitive transport or with forskolin and IBMX for induced cAMP-dependent Cl secretion.
Two cell models were used to the interface air-liquid model for ionic efflux assays by short circuit current and to dose the basolateral IL-8 secretion. Calu-3 are derived from lung adenocarcinoma and are able to polarized and express a high rate of endogenous CFTR. […] Transepithelial resistance and transepithelial potential difference were measured every 3 days using a microvoltmeter (World Precision Instruments, Astonbury, UK).
Cells were grown at 37° C. in a 5% CO2 incubator in DMEM with Glutamax (Invitrogen) and 10% fetal bovine serum (SVF). […] The effects of treatment in HNEC cultures on snapwell inserts were evaluated between days 10 and 16. […]

Regarding `CC1=C(CC(=O)O)c2cc(F)ccc2/C1=C\c1ccc([S+](C)[O-])cc1` (stereo not shown) [sulindac, (Z)-5-fluoro-2-methyl-1-[p-(methylsulfinyl)benzylidene]-indene-3-acetic acid], the “ENaC activity (amiloride sensitive short circuit current)” value is reported as “not induced modification of ENaC activity”.
